Measured values as given in patent US9108930B2, “N1- and N2-carbamoyl-1,2,3-triazole serine hydrolase inhibitors and methods” (The Scripps Research Institute, priority 2011, dated 2015).
Several values for one entry are separate records, joined by “and”; a condition that tells them apart may be missing. Equal values may be shown once.

Key:
DAGLB = target: T1, DAGLB (Mus musculus, UniProt Q91WC9); experiment: Gel-based ABPP assay against recombinant DAGLB (HEK293T-DAGLB lysates); format: biochemical; parameters: Full-length cDNAs encoding serine hydrolases were purchased from Open Biosystems; V5; host or cells: HEK293T; details: for activity against DAGLB: recombinant
T1 sequence (Q91WC9 1-669): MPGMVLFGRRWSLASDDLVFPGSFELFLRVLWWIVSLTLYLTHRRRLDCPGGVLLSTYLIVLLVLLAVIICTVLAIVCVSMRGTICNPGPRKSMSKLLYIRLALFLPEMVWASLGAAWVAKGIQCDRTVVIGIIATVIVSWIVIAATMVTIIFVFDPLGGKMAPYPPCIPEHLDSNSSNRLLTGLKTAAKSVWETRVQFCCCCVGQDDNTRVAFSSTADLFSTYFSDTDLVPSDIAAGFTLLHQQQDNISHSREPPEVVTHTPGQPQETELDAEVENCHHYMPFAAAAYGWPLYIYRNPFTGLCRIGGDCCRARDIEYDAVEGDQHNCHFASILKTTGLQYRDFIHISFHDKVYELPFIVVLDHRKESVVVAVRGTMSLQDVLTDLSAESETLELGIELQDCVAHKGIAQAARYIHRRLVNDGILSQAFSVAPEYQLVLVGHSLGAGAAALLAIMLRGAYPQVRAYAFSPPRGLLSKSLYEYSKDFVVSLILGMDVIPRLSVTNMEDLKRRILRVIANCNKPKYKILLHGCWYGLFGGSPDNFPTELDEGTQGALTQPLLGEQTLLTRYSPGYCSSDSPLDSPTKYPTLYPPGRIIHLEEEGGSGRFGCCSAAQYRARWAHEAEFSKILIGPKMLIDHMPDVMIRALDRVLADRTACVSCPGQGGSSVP

[1] = tested on: serine hydrolases in mouse brain proteome; experiment: Selectivity profile by competitive ABPP (mouse brain proteome), DAGL series; format: biochemical
ABHD11 [2] = target: T2, ABHD11 (Mus musculus, UniProt Q8K4F5); experiment: Gel-based competitive ABPP, mouse T-cell proteome in vitro; format: biochemical; details: for IC50: in vitro, 30 minutes at 37° C.
T2 sequence (Q8K4F5 35-307): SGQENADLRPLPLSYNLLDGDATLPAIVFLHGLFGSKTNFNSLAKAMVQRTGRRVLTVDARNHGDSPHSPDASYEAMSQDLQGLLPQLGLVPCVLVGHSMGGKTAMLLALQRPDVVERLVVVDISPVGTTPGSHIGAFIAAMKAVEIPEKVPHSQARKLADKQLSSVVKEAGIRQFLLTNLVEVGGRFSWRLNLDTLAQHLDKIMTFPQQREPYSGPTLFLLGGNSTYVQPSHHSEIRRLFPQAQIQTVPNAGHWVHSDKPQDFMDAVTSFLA

[3] = tested on: serine hydrolases (SHs) in mouse T-cell proteomes; experiment: Gel-based competitive ABPP, mouse T-cell proteomes in vitro, SH reactivity profile; format: biochemical; details: 100 nM, 30 minutes at 37° C.
ABHD11 [4] = target: T2, ABHD11; experiment: In situ inhibition in cultured mouse T-cells, gel-based competitive ABPP; format: cell-based; details: 4 h at 37° C.; read-out: potency of ABHD11 inactivation in cultured T-cells
ABHD11 [5] = target: T2, ABHD11; experiment: ABPP-SILAC in living mouse T-cells; details: 3 nM inhibitor, 4 h
[6] = tested on: serine hydrolases in mouse tissues; experiment: In vivo ABPP analysis of tissues from KLH25-treated mice; details: 25 mg/kg in PEG300, i.p., about 4 hours
Method: To assess the degree to which KLH25 is active in vivo, mice were treated with the compound for about 4 hours (25 mg/kg in PEG300, administered intraperitoneally, i.p.), sacrificed, and tissues were harvested for ABPP analysis.

DAGLA = target: T3, DAGLA (Mus musculus, UniProt Q6WQJ1); experiment: Activity against recombinant DAGLA; format: biochemical
T3 construct: Full-length cDNAs encoding serine hydrolases were purchased from Open Biosystems; V5; host or cells: HEK293T

APEH = target: T4, APEH (Mus musculus, UniProt Q8R146); experiment: Gel-based competitive ABPP, mouse T-cell proteome in vitro; format: biochemical; details: IC50 for APEH, in vitro, 30 minutes at 37° C., mouse
T4 sequence (Q8R146 1-732): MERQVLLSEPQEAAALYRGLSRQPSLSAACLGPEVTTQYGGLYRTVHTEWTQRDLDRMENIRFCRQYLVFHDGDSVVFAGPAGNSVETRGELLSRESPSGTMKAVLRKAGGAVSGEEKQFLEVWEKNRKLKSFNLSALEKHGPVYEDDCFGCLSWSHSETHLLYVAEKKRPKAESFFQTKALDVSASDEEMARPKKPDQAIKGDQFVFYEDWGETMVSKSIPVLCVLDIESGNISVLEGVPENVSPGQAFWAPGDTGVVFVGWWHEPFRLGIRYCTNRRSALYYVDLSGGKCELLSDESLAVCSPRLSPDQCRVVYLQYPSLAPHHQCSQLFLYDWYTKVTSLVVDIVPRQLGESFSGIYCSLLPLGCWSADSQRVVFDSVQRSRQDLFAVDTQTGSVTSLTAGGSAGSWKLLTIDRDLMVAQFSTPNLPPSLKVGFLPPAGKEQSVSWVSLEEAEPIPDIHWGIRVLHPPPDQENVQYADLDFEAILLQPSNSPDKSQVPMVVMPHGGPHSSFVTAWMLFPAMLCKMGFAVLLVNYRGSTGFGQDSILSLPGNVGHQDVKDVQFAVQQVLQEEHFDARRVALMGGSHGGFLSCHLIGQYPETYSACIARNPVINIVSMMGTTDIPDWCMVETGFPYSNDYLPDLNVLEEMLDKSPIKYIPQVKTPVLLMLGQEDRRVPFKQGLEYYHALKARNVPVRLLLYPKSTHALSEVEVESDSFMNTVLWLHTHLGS
Method: The carbamoyl triazole regioisomers were separated by gel chromatography and used for subsequent experiments. […] The compounds were screened at concentrations of 10 and 100 nM in mouse T-cell proteomes (FIG. 3e and FIG. 12).
Gel-based competitive ABPP experiments were performed as described previously. For competitive ABPP with FP-rhodamine, proteomes (1 mg/mL in PBS) were treated with FP-rhodamine (2 μM final concentration) in a […] total reaction volume. After 30 minutes at 25° C., the reactions were quenched with 2×SDS-PAGE loading buffer.
Proteomes were incubated with inhibitors for 30 minutes at 37° C. (in vitro) or for 4 h at 37° C. (in situ) at the indicated concentrations (n=3) prior to FP-rhodamine labeling. After SDS-PAGE and in-gel visualization, the percentage enzymatic activity remaining was determined by measuring the integrated optical intensity of the bands using IMAGER® software. IC50 values were determined from a dose-response curve generated using PRISM® software (GraphPad).

PAFAH2 = PAFAH2 (Mus musculus, UniProt Q8VDG7); experiment: as above; format: biochemical; details: 30 minutes at 37° C.
Sequence of PAFAH2 (Q8VDG7 whole entry): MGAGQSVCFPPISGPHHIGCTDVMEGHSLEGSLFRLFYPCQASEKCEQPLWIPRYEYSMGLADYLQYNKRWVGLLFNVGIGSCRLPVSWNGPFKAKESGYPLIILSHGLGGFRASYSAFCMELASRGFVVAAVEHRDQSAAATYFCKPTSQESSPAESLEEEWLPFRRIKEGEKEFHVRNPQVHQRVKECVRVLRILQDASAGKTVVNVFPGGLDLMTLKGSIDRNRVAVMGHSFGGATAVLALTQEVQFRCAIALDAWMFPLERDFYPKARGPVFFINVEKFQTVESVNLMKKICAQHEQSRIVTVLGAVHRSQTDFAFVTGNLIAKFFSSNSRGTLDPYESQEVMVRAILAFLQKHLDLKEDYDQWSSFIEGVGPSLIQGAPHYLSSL

T3 sequence (Q6WQJ1 whole entry): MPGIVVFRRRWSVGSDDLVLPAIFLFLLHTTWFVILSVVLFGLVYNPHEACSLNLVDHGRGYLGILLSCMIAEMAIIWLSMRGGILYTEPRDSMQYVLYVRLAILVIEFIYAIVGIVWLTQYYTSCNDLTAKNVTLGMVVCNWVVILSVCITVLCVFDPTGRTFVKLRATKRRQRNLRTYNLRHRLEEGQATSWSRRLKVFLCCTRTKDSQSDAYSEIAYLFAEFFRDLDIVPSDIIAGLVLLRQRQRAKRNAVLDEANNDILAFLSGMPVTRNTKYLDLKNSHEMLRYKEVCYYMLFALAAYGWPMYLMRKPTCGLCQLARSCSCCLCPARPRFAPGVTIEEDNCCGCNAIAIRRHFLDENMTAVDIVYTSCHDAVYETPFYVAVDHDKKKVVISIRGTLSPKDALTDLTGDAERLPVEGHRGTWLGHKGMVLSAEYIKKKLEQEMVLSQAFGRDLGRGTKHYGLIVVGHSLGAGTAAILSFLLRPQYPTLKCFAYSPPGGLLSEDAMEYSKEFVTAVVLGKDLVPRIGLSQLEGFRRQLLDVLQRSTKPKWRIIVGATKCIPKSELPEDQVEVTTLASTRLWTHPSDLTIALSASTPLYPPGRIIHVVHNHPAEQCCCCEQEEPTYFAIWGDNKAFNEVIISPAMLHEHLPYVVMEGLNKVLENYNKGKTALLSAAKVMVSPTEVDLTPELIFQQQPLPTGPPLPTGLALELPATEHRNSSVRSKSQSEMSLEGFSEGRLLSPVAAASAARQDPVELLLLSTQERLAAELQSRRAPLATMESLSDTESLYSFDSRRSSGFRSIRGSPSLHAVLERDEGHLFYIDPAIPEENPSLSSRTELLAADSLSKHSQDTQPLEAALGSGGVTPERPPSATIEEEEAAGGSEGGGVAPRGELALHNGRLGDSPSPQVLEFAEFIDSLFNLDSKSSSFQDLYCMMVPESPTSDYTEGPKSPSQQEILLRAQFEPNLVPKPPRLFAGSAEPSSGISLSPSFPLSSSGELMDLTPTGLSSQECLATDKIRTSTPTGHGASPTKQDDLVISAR

O=C(N1CCCCC1Cc1ccccc1)n1cc(C(O)(c2ccccc2)c2ccccc2)nn1 (stereo not shown) [AA43-2]
IC50 (DAGLB): ~200 nM | activity against DAGLB (DAGLB): completely blocked probe-labeling of DAGLB | off-target activity / selectivity against other serine hydrolases [1]: off-target activity against several other serine hydrolases, notably ABHD6, KIAA1363, and LYPLA1/2

COCC1CCCCN1C(=O)n1ncc(C(O)(c2ccccc2)c2ccccc2)n1 (stereo not shown) [AA44-2]
inhibition of ABHD11 (ABHD11 [2]; 10 nM): complete inactivation | IC50 (ABHD11 [2]): 1 nM | cross-reactivity with other SHs [3]: no cross-reactivity with APEH, PAFAH2, or other SHs | IC50 (ABHD11 [4]): 0.14 to 0.17 nM | ABHD11 activity blocked (ABHD11 [5]): > 95% and > 97%

O=C(N1CCCCC1Cc1ccccc1)n1cc(-c2ccc(OC(F)(F)F)cc2)nn1 (stereo not shown) [KLH25]
inhibition of ABHD6 and FAAH in vivo [6]: Potent inhibition of ABHD6 and FAAH | inhibition of endogenous DAGLA or DAGLB in vivo [6]: No inhibition of protein bands corresponding to endogenous DAGLA or DAGLB | activity against DAGLB (DAGLB): significantly more potent against DAGLB in comparison to AA43-2 | off-target activity / selectivity against other serine hydrolases [1]: negligible activity against LYPLA1, LYPLA2, and PAFAH2 | activity against DAGLA (DAGLA): exhibited activity against both DAGL enzymes

O=C(N1CCCCC1Cc1ccccc1)n1cc(-c2ccc(Br)cc2)nn1 (stereo not shown) [KT116]
potency against DAGLB relative to KT117 (DAGLB): greater than 5 fold

COCC1CCCCN1C(=O)n1cc(C(O)(c2ccccc2)c2ccccc2)nn1 (stereo not shown) [N1 AA44-2]
IC50 (ABHD11 [2]): ~58 nM

CC(C)CC(O)(CC(C)C)c1cn(C(=O)N2CCCC2)nn1 [N1 AA74-1]
IC50 (APEH): ~8 nM

O=C(N1CCCC1)n1cc(-c2ccc(Br)cc2)nn1 [N1 AA80-1]
IC50 (PAFAH2): 11 nM

O=C(N1CCCC1)n1ncc(-c2ccc(Br)cc2)n1 [N2 AA80-1]
IC50 (PAFAH2): 5 nM

CCCCCCCCCCC[C@@H](C[C@@H]1OC(=O)[C@H]1CCCCCC)OC(=O)[C@H](CC(C)C)NC=O [THL, tetrahydrolipstatin, reference compound]
activity against DAGLB (DAGLB): blocked
